Where “and” joins values, the source holds several entries; their conditions need not be identical. Equal entries are not always repeated. Entries after “also recorded” stand apart in the source; their conditions may differ.
Columns and labels:
Raw 264.7 cell line = system: Raw 264.7 cell line; set-up: method as in PMID 20625233, PMID 23541436; details: concentrations much higher than in the current study; cited from earlier work
human chondrocytes [1] = system: human chondrocytes; set-up: method as in PMID 25622554; details: limonene up to 200 μg/mL, β-myrcene up to 50 μg/mL; cited from earlier work
human chondrocytes [2] = experiment: Cell viability of IL-1β-treated primary human chondrocytes (resazurin); assay type: cell-based; details: 666 or 1331 µM; IL-1β 10 ng/mL 24 h
Method: (§1) Each column represents the mean ± SEM of, at least, three independent experiments. The blots shown are representative of, at least, three independent experiments and are cropped for clarity and conciseness.
(§2) This vehicle was used as control. Lipopolysaccharides from Escherichia coli 026:B6 (LPS; Sigma-Aldrich Co.) were dissolved in phosphate buffered saline (PBS). Recombinant human interleukin-1β (IL-1β; Peprotech, Rocky Hill, NJ, USA) was dissolved in PBS containing 0.1% Bovine Serum Albumin.
(§3) To select non-cytotoxic concentrations of the test compounds, the resazurin solution was added to each well to a final concentration of 50 µM, 90 min before the end of the treatment period indicated in the figure legends. Then, absorbances at 570 nm and 620 nm (reference wavelength) were read in a Biotek Synergy HT plate reader (Biotek, Winooski, VT, USA).

NOS2 [3] = experiment: NO production and NOS2 protein levels pre-induced by LPS (compound added after LPS removal) in Raw 264.7; assay type: cell-based, mouse; details: LPS 1 μg/mL 8 h, LPS removed, then 666 µM compound for 18 h
Method: as §1
(§4) NO production was measured as the amount of nitrite accumulated in the culture supernatants using the Griess reaction which is based in the reaction of nitrite with sulfanilamide under acidic conditions, yielding a diazonium ion that couples to N-(1-napthtyl)ethylenediamine dihydrochloride to form a water-soluble red-violet azo dye that absorbs at 550 nm[51]. Briefly, equal volumes of culture supernatants and reagents [equal volumes of 1% (w/v) sulphanilamide in 5% (v/v) phosphoric acid and 0.1% (w/v) N-(1-napthtyl)ethylenediamine dihydrochloride] were mixed and incubated for 10 min, at room temperature, in the dark. The concentration of nitrite accumulated in the culture supernatants was calculated by interpolation of the absorbance of each sample, read in Biotek Synergy HT plate reader (Biotek), in a standard curve of sodium nitrite.
(§5) Total cell extracts were prepared and western blot was performed as described before. Briefly, total (25 µg for Raw 264.7 cell line and 20 µg for human chondrocytes) proteins were separated by SDS-PAGE under reducing conditions and electrotransferred onto PVDF membranes. […] Immune complexes were detected with Enhanced ChemiFluorescence reagent (GE Healthcare) in the imaging system Thyphoon FLA 9000 (GE Healthcare). The membranes were reprobed with a mouse monoclonal anti-β-Tubulin I antibody (Sigma-Aldrich Co.), diluted at 1:20000, as a loading control, for 1 h at room temperature. Image analysis was performed with TotalLab TL120 software (Nonlinear Dynamics Ltd).

[4] = system: LPS-induced NO production in Raw 264.7 macrophages; experiment: Primary screening: LPS-induced NO production (nitrite, Griess reaction) in Raw 264.7 macrophages; assay type: cell-based, mouse; details: for IC50: Mus musculus, RAW264.7, Raw 264.7 cell line; for Decrease (inhibition) of LPS-induced NO production: at the highest concentration tested; for Decrease (inhibition) of LPS-induced NO production / % inhibition of LPS-induced NO production / Effect on LPS-induced NO production / anti-inflammatory activity (in words): Raw 264.7; for % inhibition of LPS-induced NO production: at the highest non-cytotoxic concentration tested, nitrite in supernatants; for Effect on LPS-induced NO production / anti-inflammatory activity (in words): non-cytotoxic concentrations
Method: (§6) Raw 264.7 cells were plated at a density of 3 × 10^5 cells/mL and left to stabilize for up to 24 h.
as §2, §4

human chondrocytes [5] = experiment: IL-1β-induced NOS2 protein, NO production and pro-IL-1β protein in primary human chondrocytes; assay type: cell-based; details: IL-1β 10 ng/mL 24 h
Method: The cells were treated with 10 ng/mL IL-1β for 24 h (a, b, c and d), following pre-treatment for 1 h with 666 or 1331 µM of (S)-(+)-carvone (4). As a positive control, the cells were similarly treated with 5 μM Bay 11-7082 (b and c). Control cells (Ctrl) were treated with the vehicle (0.1% DMSO) in the absence of IL-1β. Each column represents the mean ± SEM of, at least, three independent experiments. The blots shown are representative of, at least, three independent experiments and are cropped for clarity and conciseness.
Briefly, cartilage shavings underwent sequential digestion with Pronase (Roche, Indianapolis, IN, USA) and collagenase A (Roche, Indianapolis, IN, USA). To avoid chondrocyte dedifferentiation, non-proliferating monolayer cultures were setup by plating 1× 10^6 chondrocytes/mL in HAM: F12 medium containing 3% antibiotics and 5% FBS and allowed to recover for 24 h at 37 °C in a humidified atmosphere with 5% CO2. Prior to any treatments, chondrocytes were serum-starved overnight and thereafter maintained in culture medium without FBS.
This vehicle was used as control. […] Recombinant human interleukin-1β (IL-1β; Peprotech, Rocky Hill, NJ, USA) was dissolved in PBS containing 0.1% Bovine Serum Albumin.
Total cell extracts were prepared and western blot was performed as described before[54]. […] Immune complexes were detected with Enhanced ChemiFluorescence reagent (GE Healthcare) in the imaging system Thyphoon FLA 9000 (GE Healthcare). The membranes were reprobed with a mouse monoclonal anti-β-Tubulin I antibody (Sigma-Aldrich Co.), diluted at 1:20000, as a loading control, for 1 h at room temperature. Image analysis was performed with TotalLab TL120 software (Nonlinear Dynamics Ltd).

NOS2 [6] = experiment: LPS-induced NOS2 mRNA (qRT-PCR) and protein (western blot) in Raw 264.7; assay type: cell-based, mouse; details: 1 h pre-treatment, Bay 11-7082 5 μM; for LPS-induced NOS2 mRNA levels: LPS 1 µg/mL 6 h, test compounds 666 µM; for LPS-induced NOS2 protein levels: LPS 1 µg/mL 18 h
Method: Macrophage cultures were treated with 1 µg/mL LPS, for 6 h (a) or 18 h (b), following pre-treatment for 1 h with 666 µM of each test compound (a) or with the concentrations indicated in (b). […] Control cells (Ctrl) were treated with the vehicle (0.1% DMSO) in the absence of LPS. Each column represents the mean ± SEM of four independent experiments. The blots shown are representative of, at least, three independent experiments and are cropped for clarity and conciseness.
Total RNA extraction and qRT-PCR were performed as described before[52]. Briefly, total RNA was extracted using the NZYol (NZYTECH, Lisbon, Portugal) and quantified in a NanoDrop ND-1000 spectrophotometer at 260 nm. RNA purity was assessed by analysis of 260/230 and 260/280 absorption ratios. The cDNA was reverse-transcribed using NZY First Strand cDNA Synthesis Kit (NZYTECH), beginning with 2 µg of total RNA. qRT-PCR was performed, in duplicate for each sample, using NZYSpeedy qPCR Green Master Mix (2×) (NZYTECH) on CFX96 Real-Time PCR Detection System (Bio-Rad, Hercules, CA, USA).
Gene expression changes were analysed using the built-in CFX Manager software which enables the analysis of the results by the Pfaffl method, a variation of the ΔΔCT method corrected for gene-specific efficiencies[53]. The results were normalized using Hprt1 as housekeeping gene.
Total cell extracts were prepared and western blot was performed as described before[54]. Briefly, total (25 µg for Raw 264.7 cell line and 20 µg for human chondrocytes) proteins were separated by SDS-PAGE under reducing conditions and electrotransferred onto PVDF membranes. […] Immune complexes were detected with Enhanced ChemiFluorescence reagent (GE Healthcare) in the imaging system Thyphoon FLA 9000 (GE Healthcare). The membranes were reprobed with a mouse monoclonal anti-β-Tubulin I antibody (Sigma-Aldrich Co.), diluted at 1:20000, as a loading control, for 1 h at room temperature. Image analysis was performed with TotalLab TL120 software (Nonlinear Dynamics Ltd).

IL-1β = experiment: LPS-induced IL-1β mRNA, pro-IL-1β protein and secreted IL-1β in Raw 264.7; assay type: cell-based, mouse; details: for LPS-induced IL-1β mRNA levels: LPS 1 µg/mL 6 h, 1 h pre-treatment with 666 µM; for mature IL-1β secreted into the cell culture medium / pro-IL-1β protein levels: LPS 1 µg/mL 18 h, relative to LPS alone; for mature IL-1β secreted into the cell culture medium: 666 µM, ELISA
Method: Upon transcription, this mRNA is translated into a precursor protein (pro-IL-1β) that undergoes partial hydrolysis by a proteolytic complex, the inflammasome, being converted into the mature IL-1β protein which is then secreted.
Figure 3 (S)-(+)-carvone (4) and (R)-(−)-carvone (5) decrease LPS-induced IL-1β mRNA (a) and protein (b,c) levels in the Raw 264.7 cell line. Macrophage cultures were treated with 1 µg/mL LPS, for 6 h (a) or 18 h (b,c), following pre-treatment for 1 h with 666 µM of each test compound (a and c) or with the concentrations indicated in (b). Control cells (Ctrl) were treated with vehicle (0.1% DMSO) in the absence of LPS. Each column represents the mean ± SEM of, at least, three independent experiments. The blots shown are representative of, at least, three independent experiments and are cropped for clarity and conciseness. The corresponding full-length blots are presented in Fig. S3. *p < 0.05, **p < 0.01 and ****p < 0.0001 relative to LPS-treated cells. ^##p < 0.01, ^###p < 0.001 and ^####p < 0.0001 relative to the Ctrl. ^§p < 0.05 between the conditions indicated. MW: molecular weight marker.
as §2
Total RNA extraction and qRT-PCR were performed as described before. Briefly, total RNA was extracted using the NZYol (NZYTECH, Lisbon, Portugal) and quantified in a NanoDrop ND-1000 spectrophotometer at 260 nm. RNA purity was assessed by analysis of 260/230 and 260/280 absorption ratios. The cDNA was reverse-transcribed using NZY First Strand cDNA Synthesis Kit (NZYTECH), beginning with 2 µg of total RNA. qRT-PCR was performed, in duplicate for each sample, using NZYSpeedy qPCR Green Master Mix (2×) (NZYTECH) on CFX96 Real-Time PCR Detection System (Bio-Rad, Hercules, CA, USA).
Gene expression changes were analysed using the built-in CFX Manager software which enables the analysis of the results by the Pfaffl method, a variation of the ΔΔCT method corrected for gene-specific efficiencies. The results were normalized using Hprt1 as housekeeping gene.
as §5
The concentration of IL-1β in the culture supernatants was measured using the Mouse IL-1β ELISA kit (ThermoScientific, Rockford, USA), following the manufacturer’s instructions.

Raw 264.7 cells = experiment: Cytotoxicity by resazurin reduction assay in Raw 264.7 cells; assay type: cell-based, mouse; details: viability not decreased by more than 30% relative to LPS alone (ISO 10993-5), LPS 1 µg/mL 18 h
Method: Various concentrations of the test compounds, in the absence or presence of LPS, were first evaluated for cytotoxicity using the resazurin reduction assay[26]
as §6
Resazurin is a redox dye used as an indicator of cellular metabolic activity for various applications, namely cell viability, proliferation and toxicity. The assay is based on the intracellular reduction of the non-fluorescent resazurin to resorufin (a fluorescent and pink coloured compound) by mitochondrial or microsomal enzymes that use NADH or NADPH as electron sources. Since only metabolically active cells can reduce the dye, the increase in fluorescence or absorbance is directly proportional to the number of viable cells[26],[50].
as §3

[7] = carvone 666 or 1331 µM, Bay 11-7082 5 µM

C=C(C)[C@H]1CC=C(C)CC1 [limonene]
Anti-inflammatory effects (Raw 264.7 cell line): Significant anti-inflammatory effects | Anti-inflammatory effects (human chondrocytes [1]): Significant anti-inflammatory effects

C=C(C)[C@H]1CC=C(C)C(=O)C1 [(S)-(+)-carvone (4), (S)-(+)-carvone]
Cell viability relative to cells treated with IL-1β alone (human chondrocytes [2]): not to affect cell viability | Decrease of NO production (NOS2 [3]): approximately 30% | Reduction of NOS2 protein levels (NOS2 [3]): approximately 60% | IC50 [4]: 110 µM and 16.5 µg/mL | Decrease (inhibition) of LPS-induced NO production [4]: greater than 30% | % inhibition of LPS-induced NO production [4]: 68.73 ± 1.55 % ± SEM | pro-IL-1β protein levels (human chondrocytes [5]; 666 or 1331 µM): significantly decreased pro-IL-1β protein levels in a concentration-dependent manner | IL-1β-induced NO production (human chondrocytes [5]; [7]): significantly decreased | IL-1β-induced NOS2 protein levels (human chondrocytes [5]; [7]): significantly decreased | LPS-induced NOS2 mRNA levels (NOS2 [6]): significantly reduced | LPS-induced NOS2 protein levels (NOS2 [6]): significantly reduced | LPS-induced IL-1β mRNA levels (IL-1β): significantly reduced | mature IL-1β secreted into the cell culture medium (IL-1β): significantly decreased | pro-IL-1β protein levels (IL-1β): significantly decreased | Highest non-cytotoxic concentration tested (Raw 264.7 cells): 666 µM and 100 µg/mL

C=C(C)[C@@H]1CC=C(C)C(=O)C1 [(R)-(−)-carvone (5), (R)-(−)-carvone]
Decrease of NO production (NOS2 [3]): approximately 30% | Reduction of NOS2 protein levels (NOS2 [3]): approximately 60% | IC50 [4]: 123 µM and 18.5 µg/mL | Decrease (inhibition) of LPS-induced NO production [4]: greater than 30% | % inhibition of LPS-induced NO production [4]: 71.50 ± 1.74 % ± SEM | LPS-induced NOS2 mRNA levels (NOS2 [6]): significantly reduced | LPS-induced NOS2 protein levels (NOS2 [6]): significantly reduced | LPS-induced IL-1β mRNA levels (IL-1β): significantly reduced | mature IL-1β secreted into the cell culture medium (IL-1β): significantly decreased | pro-IL-1β protein levels (IL-1β): significantly decreased | Highest non-cytotoxic concentration tested (Raw 264.7 cells): 666 µM and 100 µg/mL

C=CC(=C)CCC=C(C)C [β-myrcene (16), β-myrcene]
% inhibition of LPS-induced NO production [4]: 16.48 ± 17.00 % ± SEM | Effect on LPS-induced NO production / anti-inflammatory activity (in words) [4]: showed no activity | Effect on LPS-induced NO production / anti-inflammatory activity (in words) ([4]; listed as 16): no effect; also recorded: Neither the more rigid (17–19), nor the more flexible (16) of these four compounds showed any activity | Anti-inflammatory effects (Raw 264.7 cell line): Significant anti-inflammatory effects | Anti-inflammatory effects (human chondrocytes [1]): Significant anti-inflammatory effects | Highest non-cytotoxic concentration tested (Raw 264.7 cells): 183 µM and 25 µg/mL

— article PMC7190660, “Standardised comparison of limonene-derived monoterpenes identifies structural determinants of anti-inflammatory activity” (Scientific Reports, 2020)
